Laboratory results as given in PMC3688580, “Crystal Structure, SAXS and Kinetic Mechanism of Hyperthermophilic ADP-Dependent Glucokinase from Thermococcus litoralis Reveal a Conserved Mechanism for Catalysis” (PLoS ONE, 2013).
One block for each molecule: values may come before it.

Legend:
[1] = molecular target: T1, TlGK (ADP-dependent glucokinase from Thermococcus litoralis) (Thermococcus litoralis, UniProt Q7M537); assay: product inhibition, discontinuous pyruvate kinase / lactate dehydrogenase assay; format: biochemical; conditions: mixed type vs Mg·ADP and vs D-glucose; read-out: inhibition constants
T1 construct: gene glkA; recombinant, purified from LB culture as in Merino et al. (heat shock, ammonium sulfate, two chromatographic steps); two-domain enzyme
T1 sequence (Q7M537 whole entry): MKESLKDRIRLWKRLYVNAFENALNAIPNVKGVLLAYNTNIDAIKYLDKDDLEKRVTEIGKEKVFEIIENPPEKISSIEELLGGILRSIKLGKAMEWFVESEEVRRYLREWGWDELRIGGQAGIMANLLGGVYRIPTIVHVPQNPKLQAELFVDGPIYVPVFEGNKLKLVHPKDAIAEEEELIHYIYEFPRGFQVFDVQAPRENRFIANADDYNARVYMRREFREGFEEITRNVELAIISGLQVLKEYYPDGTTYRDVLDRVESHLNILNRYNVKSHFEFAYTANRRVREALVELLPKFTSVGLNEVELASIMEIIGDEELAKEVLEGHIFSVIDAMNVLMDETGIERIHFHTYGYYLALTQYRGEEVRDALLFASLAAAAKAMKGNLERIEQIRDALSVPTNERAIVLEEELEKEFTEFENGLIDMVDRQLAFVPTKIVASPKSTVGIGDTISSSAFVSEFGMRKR

[2] = molecular target: T1, TlGK (ADP-dependent glucokinase from Thermococcus litoralis); assay: product inhibition, G6PDH-coupled assay; format: biochemical; conditions: competitive vs Mg·ADP, mixed vs D-glucose; Mg·AMP; pH 7.8; 40 °C
[3] = molecular target: T1, TlGK (ADP-dependent glucokinase from Thermococcus litoralis); assay: X-ray crystal structure […] Å; SAXS; format: binding
[4] = molecular target: T1, TlGK (ADP-dependent glucokinase from Thermococcus litoralis); assay: isothermal titration calorimetry (data not shown); also SAXS; format: binding; conditions: absence of D-glucose; active site; MgADP

- Ki [1]: 782 µM
Compound: O=P(O)(O)OC[C@H]1OC(O)[C@H](O)[C@@H](O)[C@@H]1O (stereo partly drawn) [D-glucose-6-P]

Compound: Nc1ncnc2c1ncn2[C@@H]1O[C@H](COP(=O)(O)O)[C@@H](O)[C@H]1O [Mg·AMP]
- inhibition constants [2]: Mg·AMP behaves as a competitive inhibitor of Mg·ADP

- X-ray crystal structure 2.58 Å; SAXS ([3]; nonhydrolyzable ADP analog with D-glucose and Mg, beta-phosphate lacked density, modelled as AMP): 4B8S (TlGK·Mg·ADPβS·D-glucose)
Compound: Nc1ncnc2c1ncn2[C@@H]1O[C@H](COP(=O)(O)OP(=O)(O)S)[C@@H](O)[C@H]1O (some centres unmarked) [ADPβS]

- X-ray crystal structure 2.58 Å; SAXS ([3]; ternary complex with Mg·ADPβS, active site): 4B8S (TlGK·Mg·ADPβS·D-glucose)
Compound: OC[C@H]1OC(O)[C@H](O)[C@@H](O)[C@@H]1O (stereo partly drawn) [D-glucose]

Compound: Nc1ncnc2c1ncn2[C@@H]1O[C@H](COP(=O)(O)OP(=O)(O)O)[C@@H](O)[C@H]1O [Mg·ADP]
- dissociation constant [4]: isothermal titration calorimetry experiments demonstrated binding of MgADP to the enzyme
